Laboratory results reported in paper PMC8587015, “AGSE: A Novel Grape Seed Extract Enriched for PP2A Activating Flavonoids That Combats Oxidative Stress and Promotes Skin Health” (Molecules, 2021).
“And” between values parts separate entries of the source, which are not always exact repeats. Equal entries are not always repeated. Where two headings read alike, the source gives them in different places.

Target: T1, PME-1 (Protein phosphatase methylesterase 1) (Homo sapiens, UniProt Q9Y570)
T1 sequence (Q9Y570 1-386): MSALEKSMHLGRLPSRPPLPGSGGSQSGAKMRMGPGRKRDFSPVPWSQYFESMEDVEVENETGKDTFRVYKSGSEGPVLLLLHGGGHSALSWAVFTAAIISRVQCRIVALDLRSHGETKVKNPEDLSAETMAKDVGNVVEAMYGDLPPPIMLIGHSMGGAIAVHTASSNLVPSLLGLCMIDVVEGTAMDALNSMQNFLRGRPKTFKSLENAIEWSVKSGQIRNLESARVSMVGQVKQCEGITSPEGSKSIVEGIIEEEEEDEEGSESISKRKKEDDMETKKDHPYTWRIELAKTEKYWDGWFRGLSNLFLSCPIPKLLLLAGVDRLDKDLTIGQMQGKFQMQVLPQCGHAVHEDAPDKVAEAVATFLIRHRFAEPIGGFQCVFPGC
Test: Demethylation of PP2A by PME-1, radioactive filter binding assay
Type: biochemical
Conditions: for IC50: GSE flavonoids / grape seed components
Protocol: [^3H]-labeled methylated PP2A AC dimer was prepared by incubating PP2A, LCMT1 and [^3H]-SAM (PerkinElmer; Waltham, MA, USA) in 50 mM MOPS-Na (pH 7.2), 5 mM MgCl2, and 1 mM DTT at room temperature for 1 h. Demethylation of PP2A by PME-1 (Protein phosphatase methylesterase 1) was measured using the radioactive filter binding assay format. 20 nM PME-1 was incubated for 15 min with extract or compound, then 20 nM of [^3H]-labeled methylated PP2A AC dimer was added. Reactions were run at room temperature for 30 min then applied to a 96-well filter plate (MilliporeSigma; Burlington, MA, USA.) containing 30% TCA where proteins were precipitated and separated from the excess of [^3H]-SAM by washing with 70% ethanol. [^3H]-incorporation was measured using TopCount NXT scintillation counter (PerkinElmer; Waltham, MA, USA). IC50 values were generated from dose–response curves using a four-parameter logistic curve fit in SigmaPlot (Systat Software, Inc., Palo Alto, CA, USA).

[1] = read-out: IC50, PP2A demethylation activity assay

Row | IC50 [1] | Structure (SMILES) | other results
1 | 1.7 µM | COc1c(O)cc2oc3cc(O)c(CC=C(C)C)c(O)c3c(=O)c2c1CC=C(C)C [Mangostine] | 
2 | > 15 µM | Cc1ccc(O)c(O)c1 [4-methylcatechol] | 
3 | 1.1 µM | COc1ccc(-c2cc(=O)c3c(O)cc(O)c(-c4cc(-c5cc(=O)c6c(O)cc(OC)cc6o5)ccc4OC)c3o2)cc1 [Sciadopitysin] | 
4 | 2 µM | COc1ccc(-c2oc3cc(O)cc(O)c3c(=O)c2O)cc1 [Kaempferide] | 
5 | 1.7 µM | O=c1cc(-c2ccc(O)c(O)c2)oc2cc(O)cc(O)c12 [Luteolin] | 
6 | 3.4 µM | O=c1cc(-c2ccccc2)oc2cc(O)c(O)c(O)c12 [Baicalein] | 
7 | 4.3 µM | Oc1cc(O)c2cc(O)c(-c3ccc(O)c(O)c3)[o+]c2c1 [Cyanidin chloride] | 
8 | > 25 µM | O=C1C[C@@H](c2ccc(O)c(O)c2)Oc2cc(O)cc(O)c21 [Eriodictyol] | 
9 | ~15 µM | Oc1cccc(O)c1O [Pyrogallol] | 
10 | > 25 µM | COc1cc(O)c(C(=O)/C=C/c2ccc(O)cc2)c(OC)c1 [2′,4-dihydroxy-4′,6′-dimethoxychalcone] | 
11 | 5.1 µM | Oc1cc(O)c2cc(O)c(-c3cc(O)c(O)c(O)c3)[o+]c2c1 [Delphinidin] | 
12 | ~25 µM | COc1ccc(-c2cc(=O)c3c(O)cc(O[C@@H]4O[C@H](CO[C@@H]5O[C@@H](C)[C@H](O)[C@@H](O)[C@H]5O)[C@@H](O)[C@H](O)[C@H]4O)cc3o2)cc1O [Diosmin] | 
13 | > 15 µM | Oc1cc(O)cc(O)c1 [Phloroglucinol] | 
14 | > 25 µM | COc1cc(OC)c2c(c1)OC(c1ccc(O)cc1)CC2=O (stereo not drawn) [5,7-dimethoxy-4′hydroxyflavanone] | 
15 | 2.5 µM | O=c1c(O)c(-c2ccc(O)c(O)c2)oc2cc(O)cc(O)c12 [Quercetin] | 
16 | > 25 µM | O=c1cc(-c2ccc(O)c(O)c2)oc2cc(O)c([C@@H]3O[C@H](CO)[C@@H](O)[C@H](O)[C@H]3O)c(O)c12 [Isoorientin] | 
17 | ~15 µM | COc1ccc(-c2coc3cc(O)cc(O)c3c2=O)cc1 [Biochanin a] | 
18 | > 25 µM | O=c1cc(-c2ccc(O)c(O)c2)oc2c([C@@H]3O[C@H](CO)[C@@H](O)[C@H](O)[C@H]3O)c(O)cc(O)c12 [Orientin] | 
19 | > 15 µM | Oc1cc(O)c2c(c1)O[C@H](c1ccc(O)c(O)c1)[C@@H](O)C2 [Catechin] | 
20 | > 15 µM | COc1ccc(-c2coc3cc(O)ccc3c2=O)cc1 [Formonoetin] | 
21 | > 100 µM | Oc1ccc(/C=C/c2cc(O)cc(O)c2)cc1 [Resveratrol] | activity in preventing PP2A demethylation (in words): does not function through this PP2A mechanism
22 | 0.99 µM | O=c1c(O)c(-c2cc(O)c(O)c(O)c2)oc2cc(O)cc(O)c12 [Myricetin] | 
23 | > 15 µM | O=c1c(O)c(-c2ccc(O)cc2O)oc2cc(O)cc(O)c12 [Morin] | 
24 | > 15 µM | C[C@@H]1O[C@@H](OC[C@H]2O[C@@H](Oc3c(-c4ccc(O)c(O)c4)oc4cc(O)cc(O)c4c3=O)[C@H](O)[C@@H](O)[C@@H]2O)[C@H](O)[C@H](O)[C@H]1O [Rutin] | 
25 | > 15 µM | O=c1c(O[C@@H]2O[C@H](CO)[C@@H](O)[C@H](O)[C@H]2O)c(-c2ccc(O)c(O)c2)oc2cc(O)cc(O)c12 [Isoquercetin] | 
26 | > 15 µM | CC(=O)Oc1cc(O)c2c(c1)OC(c1ccc(OC(C)=O)c(OC(C)=O)c1)C(OC(C)=O)C2=O (stereo not drawn) [2-(acetyloxy)-4-[3,7-bis(acetyloxy)-5-hydroxy-4-oxo-3,4-dihydro-2H-chromen-2-yl]phenyl acetate] | 
27 | 0.5 µM and ~0.5 µM | O=c1c(O)c(-c2ccc(O)c(O)c2)oc2cc(O)c(O)c(O)c12 [Quercetagetin] | 
28 | > 15 µM | O=C(O)/C=C/c1ccc(O)c(O)c1 [Caffeic Acid] | 
29 | > 15 µM | COc1cc(-c2oc3cc(O)cc(O)c3c(=O)c2O)cc(OC)c1OC [3,5,7-Trihydroxy-3′,4′,5′-Trimethoxyflavone] | 

Second part, the compound before the results:

Row | Structure (SMILES) | IC50 [1] | other results
30 | O=C(O)[C@H]1O[C@@H](Oc2cc3oc(-c4ccc(O)cc4)cc(=O)c3c(O)c2O)[C@H](O)[C@@H](O)[C@@H]1O [Scutellarin] | 4.9 µM | 
31 | C[C@@H]1O[C@@H](OC[C@H]2O[C@@H](Oc3cc(O)c4c(c3)O[C@H](c3ccc(O)cc3)CC4=O)[C@H](O)[C@@H](O)[C@@H]2O)[C@H](O)[C@H](O)[C@H]1O [Narirutin] | > 25 µM | 
32 | O=C(O)c1cc(O)c(O)c(O)c1 [Gallic acid] | > 15 µM | 
33 | Oc1cc(O)c2c(c1)O[C@H](c1cc(O)c(O)c(O)c1)[C@H](O)C2 [Epigallocatechin] | > 15 µM | 
34 | Oc1cc(O)c2c(c1)O[C@H](c1ccc(O)c(O)c1)[C@H](O)[C@H]2c1c(O)cc(O)c2c1O[C@H](c1ccc(O)c(O)c1)[C@@H](O)C2 [Procyanidin B1] | > 35 µM | 
35 | CO/C=C(/C(=O)OC)c1ccccc1Oc1cc(Oc2ccccc2C#N)ncn1 [Azoxystrobin] | > 15 µM | 
36 | O=c1c(O)c(-c2ccc(O)c(O)c2)oc2c(O)c(O)cc(O)c12 [Gossypetin] | 4.9 µM | 
37 | C=C[C@@]1(C)CC(=O)[C@]2(O)[C@@]3(C)[C@@H](O)CCC(C)(C)[C@@H]3[C@H](O)[C@H](OC(C)=O)[C@@]2(C)O1 [Forskolin] | > 25 µM | 
38 | COc1cc(C(=O)O)cc(OC)c1O [Syringic acid] | > 15 µM | 
39 | O=c1cc(-c2ccc(O)c(O)c2)oc2cc(O[C@@H]3O[C@H](CO)[C@@H](O)[C@H](O)[C@H]3O)cc(O)c12 [Luteolin 7-O-B-glucoside] | > 25 µM | 
40 | COc1cc(-c2oc3cc(O)cc(O)c3c(=O)c2O)ccc1O [3,5,7,4′-Tetrahydroxy-3′-methoxyflavone] | > 15 µM | 
41 | C[C@@H]1O[C@@H](O[C@H]2[C@H](Oc3cc(O)c4c(c3)O[C@H](c3ccc(O)cc3)CC4=O)O[C@H](CO)[C@@H](O)[C@@H]2O)[C@H](O)[C@H](O)[C@H]1O [Naringin] | > 25 µM | 
42 | O=C(O[C@@H]1Cc2c(O)cc(O)cc2O[C@@H]1c1cc(O)c(O)c(O)c1)c1cc(O)c(O)c(O)c1 [Epigallocatechin gallate] | 2.6 µM | 
43 | C=CCc1ccc(O)c(OC)c1 [Eugenol] | > 15 µM | 
44 | COc1cc(C(=O)O)ccc1O [Vanillic acid] | > 15 µM | 
45 | Oc1cc(O)c2c(c1)O[C@H](c1ccc(O)c(O)c1)[C@H](O)[C@H]2c1c(O)cc(O)c2c1O[C@H](c1ccc(O)c(O)c1)[C@H](O)C2 [Procyanidin B2] | > 35 µM | 
46 | CC(C)(C)C(O)(CCc1ccc(Cl)cc1)Cn1cncn1 (stereo not drawn) [Tebuconazole] | > 15 µM | 
47 | COP(=S)(OC)SCN1C(=O)c2ccccc2C1=O [Phosmet] |  | IC50 (IC50, PP2A demethylation activity assay): > 15 µM
48 | CCCCC(C#N)(Cn1cncn1)c1ccc(Cl)cc1 (stereo not drawn) [Myclobutanil] | > 15 µM | 
49 | O=c1cc(-c2ccc(O)cc2)oc2cc(O)cc(O)c12 [Apigenin] | > 15 µM | 
50 | O=c1c(-c2ccc(O)cc2)coc2cc(O[C@@H]3O[C@H](CO)[C@@H](O)[C@H](O)[C@H]3O)ccc12 [Diadzin] | > 15 µM | 
51 | CC(C)NC(=O)N1CC(=O)N(c2cc(Cl)cc(Cl)c2)C1=O [Iprodione] | > 15 µM | 
52 | Oc1cc(O)c2c(c1)O[C@H](c1ccc(O)c(O)c1)[C@@H](O)[C@@H]2c1c(O)cc(O)c2c1O[C@H](c1ccc(O)c(O)c1)[C@@H](O)C2 [Procyanidin B3] | > 35 µM | 
53 | O=c1c(-c2ccc(O)cc2)coc2cc(O)ccc12 [Diadzein] | > 15 µM | 
54 | CC(C)(O)[C@@H]1[C@H]2OC(=O)[C@@H]1[C@]1(O)C[C@H]3O[C@]34C(=O)O[C@H]2[C@]14C [Picrotin] | > 25 µM | 
55 | O=C(O[C@@H]1Cc2c(O)cc(O)cc2O[C@@H]1c1ccc(O)c(O)c1)c1cc(O)c(O)c(O)c1 [Epicatechin gallate] | 1.4 µM | 
56 | COC(=O)Cc1cc(=O)oc2cc(OC)c(OC)cc12 [Methyl 6,7-dimethoxycoumarin-4-acetate] | > 25 µM | 
